Data taken from ChEMBL document CHEMBL1240338, “BIBF 1120: triple angiokinase inhibitor with sustained receptor blockade and good antitumor efficacy” (Cancer Res, 2008).

Assays:
HUVEC [1] = experiment: Antiangiogenic activity in HUVEC assessed as inhibition of bFGF-induced cell proliferation by [3H]thymidine incorporation assay; assay type: functional, cell-based; settings: Homo sapiens
HUVEC [2] = experiment: Antiangiogenic activity in HUVEC assessed as inhibition of VEGF-induced apoptosis by [3H]thymidine incorporation assay; assay type: functional, cell-based; settings: Homo sapiens
FaDu [3] = experiment: Antitumor activity against human FADU cells xenografted in NMRI nu/nu mouse assessed as reduction of PDGFR-beta-positive mural cells at 100 mg/kg, po qd for 5 days by PDGFR-beta immunohistochemistry image analysis relative to control; design: scale not given: the % may be the effect or the level left
FaDu [4] = experiment: Antitumor activity against human FADU cells xenografted in NMRI nu/nu mouse assessed as tumor growth at 25 mg/kg, po qd for 5 days relative to control
[5] = Trough plasma concentration in NMRI nu/nu mouse at 50 mg/kg, po after 24 hrs; assay type: ADME, organism-based; design: dose 50 mg/kg, route oral
[6] = Antitumor activity against rat GS-9L cells implanted in syngeneic F344 Fischer rat assessed as inhibition of tumor growth at 25 mg/kg, po qd for 5 days relative to control
CAKI-1 [7] = experiment: Antitumor activity against human Caki1 cells xenografted in NMRI nu/nu mouse assessed as tumor growth at 100 mg/kg, po qd for 5 days relative to control
Mus musculus [8] = experiment: Toxicity in human FADU cells xenografted in NMRI nu/nu mouse assessed mortality at 100 mg/kg, po qd for 5 days; assay type: organism-based; design: dose 100 mg/kg, route oral; settings: in vivo, 120 h
CAKI-1 [9] = experiment: Antitumor activity against human Caki1 cells xenografted in NMRI nu/nu mouse assessed as tumor growth at 10 mg/kg, po qd for 5 days relative to control
FaDu [10] = experiment: Antitumor activity against human FADU cells xenografted in NMRI nu/nu mouse assessed as tumor growth at 10 mg/kg, po qd for 5 days relative to control
FaDu [11] = experiment: Antitumor activity against human FADU cells xenografted in NMRI nu/nu mouse assessed as tumor growth at 100 mg/kg, po qd for 5 days relative to control
FaDu [12] = experiment: Antitumor activity against human FADU cells xenografted in NMRI nu/nu mouse assessed as tumor growth at 50 mg/kg, po qd for 5 days relative to control
Mus musculus [13] = experiment: Toxicity in human FADU cells xenografted in NMRI nu/nu mouse assessed weight loss at 100 mg/kg, po qd for 5 days; assay type: organism-based; design: dose 100 mg/kg, route oral; settings: in vivo, 120 h
Calu-6 = experiment: Antiangiogenic activity in human Calu6 assessed as inhibition of cell proliferation by [3H]thymidine incorporation assay in presence of fetal calf serum; assay type: functional, cell-based
[14] = Antiangiogenic activity in HSMEC assessed as inhibition of VEGF-induced apoptosis by [3H]thymidine incorporation assay; assay type: functional, Homo sapiens
[15] = Antitumor activity against rat GS-9L cells implanted in syngeneic F344 Fischer rat assessed as inhibition of tumor growth at 10 mg/kg, po qd for 5 days relative to control
HeLa = experiment: Antiangiogenic activity in human HeLa assessed as inhibition of cell proliferation by [3H]thymidine incorporation assay in presence of fetal calf serum; assay type: functional, cell-based
[16] = Plasma concentration in NMRI nu/nu mouse at 50 mg/kg, po after 1 hr; assay type: ADME, organism-based; design: dose 50 mg/kg, route oral
[17] = Antiangiogenic activity in BRP assessed as inhibition of PDGF BB-induced cell proliferation by [3H]thymidine incorporation assay; assay type: functional; settings: Bos taurus
HUVEC [18] = experiment: Antiangiogenic activity in HUVEC assessed as inhibition of VEGF-induced cell proliferation by [3H]thymidine incorporation assay; assay type: functional, cell-based; settings: Homo sapiens
[19] = Antitumor activity against rat GS-9L cells implanted in syngeneic F344 Fischer rat assessed as inhibition of tumor growth at 50 mg/kg, po qd for 5 days relative to control
CAKI-1 [20] = experiment: Antitumor activity against human Caki1 cells xenografted in NMRI nu/nu mouse assessed as tumor growth at 50 mg/kg, po qd for 5 days relative to control
FaDu [21] = experiment: Antitumor activity against human FADU cells xenografted in NMRI nu/nu mouse assessed as reduction of tumor vessel density at 100 mg/kg, po qd for 5 days by Meca 32 immunohistochemistry image analysis relative to control; design: scale not given: the % may be the effect or the level left
FaDu [22] = experiment: Antiangiogenic activity in human FADU assessed as inhibition of cell proliferation by [3H]thymidine incorporation assay in presence of fetal calf serum; assay type: functional, cell-based
FaDu [23] = experiment: Antitumor activity against human FADU cells xenografted in NMRI nu/nu mouse assessed as inhibition of tumor growth at 50 mg/kg, po qd for 2 days relative to control; assay type: functional
[24] = Antiangiogenic activity in HSMEC assessed as inhibition of VEGF-induced cell proliferation by [3H]thymidine incorporation assay; assay type: functional; settings: Homo sapiens
HUVEC [25] = experiment: Induction of apoptosis in HUVEC at 50 nM by TUNEL assay (reference value: 2%); assay type: cell-based; settings: human, 0.05 µM
[26] = Antiangiogenic activity in HUASMC assessed as inhibition of PDGF BB-induced cell proliferation by [3H]thymidine incorporation assay; assay type: functional; settings: Homo sapiens
[27] = biological target: Cyclin-dependent kinase 2 (Homo sapiens, UniProt P24941); experiment: Inhibition of human CDK2

SMILES: COC(=O)c1ccc2c(c1)NC(=O)/C2=C(\Nc1ccc(N(C)C(=O)CN2CCN(C)CC2)cc1)c1ccccc1 [NINTEDANIB]
- EC50 (HUVEC [1]): 0.29 µM
- EC50 (HUVEC [2]): < 0.01 µM
- Activity (FaDu [3]): 64%
- T/C (FaDu [4]): 46%
- concentration at 24 h [5]: < 0.008 µM
- T/C [6]: 45%
- T/C (CAKI-1 [7]): 16%
- Activity (Mus musculus [8]): Non-toxic
- T/C (CAKI-1 [9]): 71%
- T/C (FaDu [10]): 82%
- T/C (FaDu [11]): 11%
- T/C (FaDu [12]): 27%
- Activity (Mus musculus [13]): Non-toxic
- EC50 (Calu-6): > 3.5 µM
- EC50 [14]: < 0.01 µM
- T/C [15]: 74%
- EC50 (HeLa): > 3.5 µM
- concentration at 1 h [16]: 1 µM
- EC50 [17]: 0.079 µM
- EC50 (HUVEC [18]): 0.009 µM
- T/C [19]: 30%
- T/C (CAKI-1 [20]): 25%
- Activity (FaDu [21]): 76%
- EC50 (FaDu [22]): > 4.5 µM
- T/C (FaDu [23]): 15%
- EC50 [24]: 0.007 µM
- Activity (HUVEC [25]): 28%
- EC50 [26]: 0.069 µM
- IC50 [27]: > 10 µM
